According to patent publication US9624206B2, “Antibacterial 1H-indazole and 1H-indole derivatives” (priority 2013, dated 2017):
Values after ≈ are worked out from the molar mass of the structure shown.

Experiments:
Test in all cases: Bacterial growth minimal inhibitory concentration (microdilution, CLSI M7-A7)
Assay type in all cases: cell-based
K. pneumoniae A-651 = details: Klebsiella pneumoniae, A651; multiply-resistant strain (in particular quinolone-resistant); cation-adjusted Mueller-Hinton Broth
Procedure: (§1) Minimal Inhibitory Concentrations (MICs; mg/L) were determined in cation-adjusted Mueller-Hinton Broth by a microdilution method following the description given in “Methods for Dilution Antimicrobial Susceptibility Tests for Bacteria that Grow Aerobically”, Approved standard, 7th ed., Clinical and Laboratory Standards Institute (CLSI) Document M7-A7, Wayne, Pa., USA (2006).
(§2) All Example compounds were tested against several Gram-positive and Gram-negative bacteria. […] K. pneumoniae A-651 and Acinetobacter baumannii T6474 are multiply-resistant strains (in particular quinolone-resistant), while E. coli ATCC25922 and P. aeruginosa ATCC27853 are quinolone-sensitive strains.

P. aeruginosa ATCC27853 = details: Pseudomonas aeruginosa, ATCC27853; quinolone-sensitive strain; cation-adjusted Mueller-Hinton Broth
Procedure: as §1, §2

E. coli ATCC25922 = details: Escherichia coli, ATCC25922; quinolone-sensitive strain; cation-adjusted Mueller-Hinton Broth
Procedure: as §1, §2

[1] = tested on: Acinetobacter baumannii T6474; details: Acinetobacter baumannii, T6474; multiply-resistant strain (in particular quinolone-resistant); cation-adjusted Mueller-Hinton Broth
Procedure: as §1, §2

MIC (K. pneumoniae A-651) [µg/mL]	MIC (P. aeruginosa ATCC27853) [µg/mL]	MIC (E. coli ATCC25922) [µg/mL]	MIC [1] [µg/mL]	Structure (SMILES)
0.25 (≈ 0.581 µM)	1 (≈ 2.32 µM)	0.5 (≈ 1.16 µM)	16 (≈ 37.2 µM)	C[C@@](CCn1ccc2cc(C#CC#CC3(O)COC3)ccc21)(C(=O)NO)S(C)(=O)=O [Example 11, (R)—N-hydroxy-4-(5-((3-hydroxyoxetan-3-yl)buta-1,3-diyn-1-yl)-1H-indol-1-yl)-2-methyl-2-(methylsulfonyl)butanamide]
0.25 (≈ 0.517 µM)	1 (≈ 2.07 µM)	0.25 (≈ 0.517 µM)	0.25 (≈ 0.517 µM)	C[C@@](CCn1ncc2cc(C#Cc3ccc(C4(O)COC4)cc3)ccc21)(C(=O)NO)S(C)(=O)=O [Example 12, (R)—N-hydroxy-4-(5-((4-(3-hydroxyoxetan-3-yl)phenyl)ethynyl)-1H-indazol-1-yl)-2-methyl-2-(methylsulfonyl)butanamide]
0.25 (≈ 0.559 µM)	1 (≈ 2.23 µM)	0.25 (≈ 0.559 µM)	8 (≈ 17.9 µM)	C[C@@](CCn1ncc2cc(C#CC#CC3(O)CSC3)ccc21)(C(=O)NO)S(C)(=O)=O [Example 13, (R)—N-hydroxy-4-(5-((3-hydroxythietan-3-yl)buta-1,3-diyn-1-yl)-1H-indazol-1-yl)-2-methyl-2-(methylsulfonyl)butanamide]
0.25 (≈ 0.549 µM)	1 (≈ 2.2 µM)	≤ 0.063	0.125 (≈ 0.274 µM)	C[C@@](CCn1ncc2cc(C#Cc3ccc(CCO)cc3)ccc21)(C(=O)NO)S(C)(=O)=O [Example 14, (R)—N-hydroxy-4-(5-((4-(2-hydroxyethyl)phenyl)ethynyl)-1H-indazol-1-yl)-2-methyl-2-(methylsulfonyl)butanamide]
0.125	1	≤ 0.063	0.25	C[C@@H](O)c1ccc(C#Cc2ccc3c(cnn3CC[C@](C)(C(=O)NO)S(C)(=O)=O)c2)cc1.Cl [Example 16, (R)—N-hydroxy-4-(5-((4-((R)-1-hydroxyethyl)phenyl)ethynyl)-1H-indazol-1-yl)-2-methyl-2-(methylsulfonyl)butanamide hydrochloride]
0.125 (≈ 0.292 µM)	0.5 (≈ 1.17 µM)	≤ 0.063	16 (≈ 37.3 µM)	C[C@@](CCn1ccc2cc(C#CC#C[C@H]3C[C@@H]3CO)ccc21)(C(=O)NO)S(C)(=O)=O [Example 17, (R)—N-hydroxy-4-(5-(((1S,2S)-2-(hydroxymethyl)cyclopropyl)buta-1,3-diyn-1-yl)-1H-indol-1-yl)-2-methyl-2-(methylsulfonyl)butanamide]
≤ 0.063	0.5 (≈ 1.17 µM)	≤ 0.063	16 (≈ 37.3 µM)	C[C@@](CCn1ccc2cc(C#CC#C[C@@H]3C[C@H]3CO)ccc21)(C(=O)NO)S(C)(=O)=O [Example 18, (R)—N-hydroxy-4-(5-(((1R,2R)-2-(hydroxymethyl)cyclopropyl)buta-1,3-diyn-1-yl)-1H-indol-1-yl)-2-methyl-2-(methylsulfonyl)butanamide]
0.25 (≈ 0.519 µM)	1 (≈ 2.08 µM)	0.125 (≈ 0.26 µM)	≤ 0.063	C[C@@](CCn1ncc2cc(C#Cc3ccc([C@H]4C[C@@H]4CO)cc3)ccc21)(C(=O)NO)S(C)(=O)=O [Example 19, (R)—N-hydroxy-4-(5-((4-((1S,2S)-2-(hydroxymethyl)cyclopropyl)phenyl)ethynyl)-1H-indazol-1-yl)-2-methyl-2-(methylsulfonyl)butanamide]
0.25 (≈ 0.519 µM)	1 (≈ 2.08 µM)	≤ 0.063	≤ 0.063	C[C@@](CCn1ncc2cc(C#Cc3ccc([C@@H]4C[C@H]4CO)cc3)ccc21)(C(=O)NO)S(C)(=O)=O [Example 20, (R)—N-hydroxy-4-(5-((4-((1R,2R)-2-(hydroxymethyl)cyclopropyl)phenyl)ethynyl)-1H-indazol-1-yl)-2-methyl-2-(methylsulfonyl)butanamide]
1 (≈ 2.12 µM)	1 (≈ 2.12 µM)	1 (≈ 2.12 µM)	0.5 (≈ 1.06 µM)	C[C@@](CCn1ncc2cc(C#Cc3ccc([C@@H](O)CO)cc3)ccc21)(C(=O)NO)S(C)(=O)=O [Example 21, (R)-4-(5-((4-((R)-1,2-dihydroxyethyl)phenyl)ethynyl)-1H-indazol-1-yl)-N-hydroxy-2-methyl-2-(methylsulfonyl)butanamide]
1 (≈ 2.12 µM)	1 (≈ 2.12 µM)	0.5 (≈ 1.06 µM)	0.5 (≈ 1.06 µM)	C[C@@](CCn1ncc2cc(C#Cc3ccc([C@H](O)CO)cc3)ccc21)(C(=O)NO)S(C)(=O)=O [Example 22, (R)-4-(5-((4-((S)-1,2-dihydroxyethyl)phenyl)ethynyl)-1H-indazol-1-yl)-N-hydroxy-2-methyl-2-(methylsulfonyl)butanamide]
0.5 (≈ 1.1 µM)	1 (≈ 2.2 µM)	0.125 (≈ 0.274 µM)	0.125 (≈ 0.274 µM)	C[C@H](O)c1ccc(C#Cc2ccc3c(cnn3CC[C@](C)(C(=O)NO)S(C)(=O)=O)c2)cc1 [Example 23, (R)—N-hydroxy-4-(5-((4-((S)-1-hydroxyethyl)phenyl)ethynyl)-1H-indazol-1-yl)-2-methyl-2-(methylsulfonyl)butanamide]
4 (≈ 9.6 µM)	1 (≈ 2.4 µM)	1 (≈ 2.4 µM)	> 32	CC(C)(N)C#CC#Cc1ccc2c(cnn2CC[C@](C)(C(=O)NO)S(C)(=O)=O)c1 [Example 24, (R)-4-(5-(5-amino-5-methylhexa-1,3-diyn-1-yl)-1H-indazol-1-yl)-N-hydroxy-2-methyl-2-(methylsulfonyl)butanamide]
0.5 (≈ 1.04 µM)	2 (≈ 4.16 µM)	0.25 (≈ 0.52 µM)	0.5 (≈ 1.04 µM)	C[C@@](CCn1ccc2cc(C#Cc3ccc(C4(CO)CC4)cc3)ccc21)(C(=O)NO)S(C)(=O)=O [Example 25, (R)—N-hydroxy-4-(5-((4-(1-(hydroxymethyl)cyclopropyl)phenyl)ethynyl)-1H-indol-1-yl)-2-methyl-2-(methylsulfonyl)butanamide]
0.125 (≈ 0.291 µM)	0.5 (≈ 1.16 µM)	≤ 0.063	2 (≈ 4.66 µM)	C[C@@](CCn1ncc2cc(C#CC#C[C@H]3C[C@@H]3CO)ccc21)(C(=O)NO)S(C)(=O)=O [Example 26, (R)—N-hydroxy-4-(5-(((1S,2S)-2-(hydroxymethyl)cyclopropyl)buta-1,3-diyn-1-yl)-1H-indazol-1-yl)-2-methyl-2-(methylsulfonyl)butanamide]
0.5 (≈ 1.06 µM)	2 (≈ 4.24 µM)	0.25 (≈ 0.53 µM)	0.125 (≈ 0.265 µM)	C[C@@](CCn1ncc2cc(C#Cc3ccc(OCCO)cc3)ccc21)(C(=O)NO)S(C)(=O)=O [Example 27, (R)—N-hydroxy-4-(5-((4-(2-hydroxyethoxy)phenyl)ethynyl)-1H-indazol-1-yl)-2-methyl-2-(methylsulfonyl)butanamide]
2 (≈ 4.13 µM)	4 (≈ 8.26 µM)	1 (≈ 2.06 µM)	0.5 (≈ 1.03 µM)	C[C@@](CCn1ncc2cc(C#Cc3ccc(NC(=O)CO)cc3)ccc21)(C(=O)NO)S(C)(=O)=O [Example 28, (R)—N-hydroxy-4-(5-((4-(2-hydroxyacetamido)phenyl)ethynyl)-1H-indazol-1-yl)-2-methyl-2-(methylsulfonyl)butanamide]
0.5 (≈ 1.07 µM)	2 (≈ 4.27 µM)	0.25 (≈ 0.534 µM)	0.5 (≈ 1.07 µM)	CC(C)(O)c1ccc(C#Cc2ccc3c(ccn3CC[C@](C)(C(=O)NO)S(C)(=O)=O)c2)cc1 [Example 29, (R)—N-hydroxy-4-(5-((4-(2-hydroxypropan-2-yl)phenyl)ethynyl)-1H-indol-1-yl)-2-methyl-2-(methylsulfonyl)butanamide]
